Results on 4 molecules are retold here after US20080200393A1, “Method and Composition For Treating Angiogenesis and For Preventing Cancer Progression and Metastasis Comprising a Prostate Secretory Protein (Psp94) Family Member” (Ambrillia Biopharma Inc., priority 2004, published 2008).

Where no end group is shown, it is not given here. The star is where a group is joined. Acm = CC(=O)NC*

One assay relates to HUVEC. Kind of assay: HUVEC migration assay (modified Boyden chambers, gelatin-coated filters). Type of assay: cell-based, Human. Conditions: 300 μg/ml. As for the experimental part: Migration Assays. Transwells filters (8-μm pore size; Costar, Cambridge, Mass.) were pre-coated with 0.5% gelatin/PBS for 24 h at 4° C. The transwells were then washed with PBS and assembled in 24-well plates. The upper chamber of each transwell was filled with 100 μl of HUVEC (1×10^6 cells/ml) and cells were allowed to adhere for 1 h. Cells were then treated for 2 h by adding 100 μl of 2-fold concentrated drug solution prepared in serum-free medium into the upper chamber and 600 μl of the drug solution into the lower chamber. Migration was initiated by adding VEGF (10 ng/ml), or S1P (1 μM) to the lower chamber. The plate was placed at 37° C. in 5% CO2/95% air for 4 h. Cells that had migrated to the lower surface of the filters were fixed with 10% formalin phosphate and stained with 0.1% Crystal Violet/20% (v/v) methanol. The migration was quantified using computer-assisted imaging and data are expressed as the average density of migrated cells per four fields (magnification×50).
Cells were plated onto gelatin-coated filters inserted in modified Boyden chemotactic chambers. The effect of PCK3145 on basal migration and on VEGF-induced migration was monitored by the number of cells that had migrated comparatively to untreated control cells. HUVEC were dislodged from the flasks by trypsinization, washed and resuspended in serum-free media. Cells were placed onto gelatin-coated filters inserted in chambers and incubated at 37° C., 5% CO2 for 30 min to allow adequate anchoring to the filters. The monolayers were then exposed to serum-free media containing PCK3145 (300 μg/ml) added within the upper and lower compartment of the chambers. After 2 h, VEGF (50 ng/ml) was added in the lower chamber as a chemoattractant. Cell migration was allowed to proceed for another 3 h. Filters were then fixed, stained, and the migrated cells quantified by microscopy as described in the Methods section. […] The effect of. PCK on S1P-induced HUVEC migration was also measured, but no inhibition was observed (not shown) in this particular assay.

Another assay concerns the target T1, VEGFR-2 (Homo sapiens, UniProt P35968).
T1 construct: host or cells: HUVEC
Description: VEGF-induced VEGFR-2 phosphorylation in HUVEC (immunoprecipitation, Western blot). The assay is classed as cell-based. As for the experimental part:
(§1) Immunoprecipitation and immunoblotting procedures. After treatment, cells were washed once with phosphate-buffered saline (PBS) containing 1 mM sodium orthovanadate and were incubated in the same medium for 1 h at 4° C. The cells were solubilized on ice in lysis buffer (150 mM NaCl, 10 mM Tris-HCl, pH 7.4, 1 mM EDTA, 1 mM EGTA, 0.5% Nonidet P-40, 1% Triton X-100) containing 1 mM sodium orthovanadate. The cells were then scraped from the culture dishes and the resulting lysates were clarified by centrifugation at 10,000 g for 10 min; Protein concentrations were determined using the micro bicinchoninic acid method (Pierce). For immunoprecipitation studies, lysates were clarified by a 1 h incubation at 4° C. with a mixture of Protein A/Protein G Sepharose beads. After removal of the Sepharose beads by low-speed centrifugation, identical amounts of protein (200 μg) from each sample were transferred to fresh tubes and incubated in lysis buffer overnight at 4° C. in the presence of 2 μg/ml of specific antibodies. Immunocomplexes were collected by incubating the mixture with 25 μl (50% suspension) of Protein A- (rabbit primary antibody) or Protein G- (mouse primary antibody) Sepharose beads, for 2 h. Nonspecifically-bound material was removed by washing the beads three times in 1 ml of lysis buffer containing 1 mM sodium orthovanadate, and bound material was solubilized in 25 μl of two-fold concentrated Laemmli sample buffer (125 mM Tris-HCl (pH 6.8), 20% glycerol, 4% SDS, 10% β-mercaptoethanol, and 0.00125% bromphenol blue), boiled 5 min, and resolved by SDS-PAGE. […] The immunoreactive bands were quantified by scanning densitometry (Molecular Dynamics).
The multifunctionality of VEGF at the cellular level results from its ability to initiate a diverse, complex and integrated network of signaling pathways via its major receptor, VEGFR-2. […] After each treatment, equal amounts of protein were immunoprecipitated with anti-VEGFR-2 polyclonal antibodies and analysed by Western blotting.
(Immunoblotting shows a protein as a band on a membrane.)

Assay [1] concerns ERK. Kind of assay: Intrinsic effect on ERK phosphorylation (Western blot). The assay is classed as cell-based. As for the experimental part: The induction of the MAPK pathway by the PCK3145 derivative is further confirmed by the rapid and transient induction of ERK phosphorylation between 5-10 minutes (FIG. 8B) and is shown to be dose-dependent (FIG. 8C). Finally, the effects of the PCK3145 derivative were also compared to those of a scrambled peptide.

Assay [2] concerns ERK. Description: Induced ERK phosphorylation in HUVEC (Western blot). The assay is classed as cell-based, Human. As to the method:
Cell culture. Human umbilical vein endothelial cells (HUVEC) and pulmonary aortic smooth muscle cells (PASMC) were obtained from Clonetics and maintained in endothelial cell basal medium-2 (EBM-2; Clonetics) and smooth muscle medium-2 (SmGM-2; Clonetics), respectively. Cells were cultured at 37° C. under a humidified atmosphere containing 5% CO2. For experimental purposes, cells were plated in 8 100-mm plastic dishes at 5,000 cells/cm^2 and were grown to confluence before overnight serum starvation. Cells were treated with vehicle or with a PCK3145 derivative diluted in 0.1 N NaOH, and stimulated with 50-100 ng/ml VEGF or PDGF, with 10 ng/ml of bFGF (basic fibroblast growth factor) or with 1 μM S1P (sphingosine-1-phosphate).
as §1, with “SDS-PAGE. The proteins were transferred onto polyvinylidene difluoride (PVDF) membranes, blocked 1 h at room temperature with Tris-buffered saline/Tween 20 (147 mM NaCl, 20 mM Tris/HCl, pH 7.5, and 0.1% Tween 20) containing 2% bovine serum albumin and incubated overnight at 4° C. with primary antibody.” for “SDS-PAGE.”
VEGF is a strong activator of ERKs (Extracellular-signal-Regulated protein Kinases) 1 and 2 via VEGF receptor 2. In order to test the ability of the PCK3145 derivative in potentially antagonizing VEGF-mediated ERK phosphorylation, serum-starved quiescent endothelial cells (HUVEC) were incubated with vehicle (phosphate-buffered saline (PBS) pH 7.4) or PCK3145 derivative (300 μg/ml) for 24 h and then stimulated with VEGF, bFGF (basic Fibroblast Growth Factor) or S1P (sphingosine-1-phosphate). Cells were washed with PBS containing NaF/Na3VO4 and incubated in the same medium buffer for 1 h at 4° C. The cells were scraped from the culture dishes and the resulting lysates clarified by centrifugation. Western blotting and immunodetection using anti-phosphoERK and anti-ERK antibodies was then performed.

In a further assay the test system is proMMP-2. Kind of assay: Gelatin zymography of HUVEC conditioned media. Type of assay: cell-based, Human. Conditions: HUVEC, serum-free media. As for the experimental part: Zymography. Zymography is a technique generally used to analyze the activity of matrix metalloproteinases (MMPs) in biological samples. It involves the electrophoretic separation of proteins under denaturing (Sodium Dodecyl Sulfate (SDS)) but non-reducing conditions through a polyacrylamide gel containing gelatin (for example, 10% gel containing 1 mg/ml gelatin for MMP-9 and MMP-2 assays). The resolved proteins are re-natured by exchanging SDS with a non-ionic detergent such as Triton X-100 and the gel is incubated in an incubation buffer for activation of MMP-2 and MMP-9 (for example at 37° C. for 18 hrs). The gel is stained with Coomassie blue and the MMP-2 and MMP-9 bands may be visualized as clear bands against a blue background (i.e., the MMPs degrade the gelatin and are visualized as clear bands; pro MMP-2 is 68 kDa and pro-MMP-9 is 92 kDa). These bands can be quantified using densitometry. For example, prior to stimulation, quiescent HUVEC were serum-starved for 16 h in the presence or absence of PCK3145 or PD98059 and then stimulated with VEGF. The conditioned media were collected 24 h after stimulation, and clarified by centrifugation. Identical volume of conditioned media were mixed with non reducing Laemmli sample buffer and subjected to 7.5% SDS-polyacrylamide gels containing 1 mg/ml gelatin (Sigma). The gels were then incubated for 30 min at room temperature twice in 2.5% (v/v) Triton X-100 and rinsed five times in doubly distilled water. The gels were incubated at 37° C. for a further 18 h in 200 mM NaCl/5 mM CaCl2/0.02% (v/v) Brij-35/50 mM Tris/HCl buffer (pH 7.6), then stained with 0.1% Coomassie Brilliant Blue R-250, followed by destaining in 10% (v/v) acetic acid/30% (v/v) methanol in water. Gelatinolytic activity was detected as unstained bands on a blue background.
The effect of the PCK3145 derivative (SEQ ID NO.:7) on MMP extracellular levels was thus assessed by gelatin-zymography in the conditioned media of serum-starved HUVEC. After 16 hours of starvation, HUVEC were stimulated with VEGF in the presence or not of the PCK3145 derivative. […]

Another assay concerns the target T2, FSH receptor (Homo sapiens, UniProt P23945).
T2 construct: host or cells: testicular membrane preparations
T2 sequence (P23945 18-695): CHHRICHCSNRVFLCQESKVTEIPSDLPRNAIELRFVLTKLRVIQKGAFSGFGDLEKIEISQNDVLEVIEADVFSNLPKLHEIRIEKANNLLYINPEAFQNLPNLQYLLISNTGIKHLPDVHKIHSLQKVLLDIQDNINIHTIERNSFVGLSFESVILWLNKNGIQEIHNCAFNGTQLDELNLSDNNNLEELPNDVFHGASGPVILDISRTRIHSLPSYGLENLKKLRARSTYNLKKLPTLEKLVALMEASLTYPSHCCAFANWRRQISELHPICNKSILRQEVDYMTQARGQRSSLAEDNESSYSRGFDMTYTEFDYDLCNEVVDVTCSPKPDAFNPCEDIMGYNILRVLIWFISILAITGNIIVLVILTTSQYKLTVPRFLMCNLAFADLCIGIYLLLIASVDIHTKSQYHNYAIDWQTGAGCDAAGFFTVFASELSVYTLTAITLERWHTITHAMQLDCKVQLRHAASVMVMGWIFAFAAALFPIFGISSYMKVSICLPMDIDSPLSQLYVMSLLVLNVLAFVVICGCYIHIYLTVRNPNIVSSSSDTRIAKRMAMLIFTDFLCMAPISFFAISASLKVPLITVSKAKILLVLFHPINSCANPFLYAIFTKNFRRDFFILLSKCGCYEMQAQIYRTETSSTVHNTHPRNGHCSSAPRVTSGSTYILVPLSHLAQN
Conditions: testicular membrane preparations; Vijayalakshmi et al., 1981; cited from earlier work.

In another assay the test system is tumor cells. Conditions: U.S. Pat. No. 5,428,011; cited from earlier work.
The test system of another assay is FSH. Conditions: Thakur et al., 1981; cited from earlier work.
The subject of a further assay is skeletal metastasis. Conditions: WO03/039576; cited from earlier work.

T1 sequence (P35968 20-1356): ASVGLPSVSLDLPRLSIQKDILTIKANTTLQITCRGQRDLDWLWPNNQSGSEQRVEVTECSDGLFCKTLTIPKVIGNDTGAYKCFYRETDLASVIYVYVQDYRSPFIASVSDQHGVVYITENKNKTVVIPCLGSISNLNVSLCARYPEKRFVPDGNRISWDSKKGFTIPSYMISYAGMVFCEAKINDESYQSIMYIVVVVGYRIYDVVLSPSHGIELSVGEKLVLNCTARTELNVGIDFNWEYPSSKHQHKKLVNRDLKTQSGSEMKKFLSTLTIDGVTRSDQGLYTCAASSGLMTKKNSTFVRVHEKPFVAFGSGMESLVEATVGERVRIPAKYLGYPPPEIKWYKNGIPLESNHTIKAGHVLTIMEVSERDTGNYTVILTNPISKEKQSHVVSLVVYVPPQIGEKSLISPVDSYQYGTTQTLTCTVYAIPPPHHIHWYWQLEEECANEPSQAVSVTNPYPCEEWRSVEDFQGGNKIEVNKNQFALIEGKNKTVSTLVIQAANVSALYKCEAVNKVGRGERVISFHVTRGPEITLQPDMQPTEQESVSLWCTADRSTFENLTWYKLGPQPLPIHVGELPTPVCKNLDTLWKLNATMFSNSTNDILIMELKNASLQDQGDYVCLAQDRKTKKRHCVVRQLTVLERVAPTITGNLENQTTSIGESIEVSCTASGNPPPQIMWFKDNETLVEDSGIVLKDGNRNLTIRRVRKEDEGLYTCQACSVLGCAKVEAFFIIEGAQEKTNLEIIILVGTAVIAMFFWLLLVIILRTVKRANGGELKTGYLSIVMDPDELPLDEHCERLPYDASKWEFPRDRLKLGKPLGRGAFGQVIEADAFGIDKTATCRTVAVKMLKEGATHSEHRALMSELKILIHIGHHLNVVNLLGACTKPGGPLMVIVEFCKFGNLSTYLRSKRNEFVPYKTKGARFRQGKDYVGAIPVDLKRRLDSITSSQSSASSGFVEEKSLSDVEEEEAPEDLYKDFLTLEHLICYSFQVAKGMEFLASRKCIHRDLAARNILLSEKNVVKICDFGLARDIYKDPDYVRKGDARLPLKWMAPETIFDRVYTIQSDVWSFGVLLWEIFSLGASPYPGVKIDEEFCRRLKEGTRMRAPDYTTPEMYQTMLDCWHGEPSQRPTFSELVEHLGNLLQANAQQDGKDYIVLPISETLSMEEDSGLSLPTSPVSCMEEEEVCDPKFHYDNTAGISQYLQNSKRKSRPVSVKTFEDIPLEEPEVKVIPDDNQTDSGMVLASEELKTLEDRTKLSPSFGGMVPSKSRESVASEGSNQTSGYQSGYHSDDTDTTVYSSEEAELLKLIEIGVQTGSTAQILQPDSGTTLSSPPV

Take “EWQTDNCETCTCYET (cysteine pairing not given here) [PCK3145, PSP94 fragment, 15 amino acids]”: the basal cell migration entry in the assay with HUVEC is “no significant effect”. The VEGF-induced cell migration entry in the assay with HUVEC (VEGF 50 ng/ml) is given as “no significant effect”.

Take “TC(Acm)ENC(Acm)TETQWC(Acm)ETDY [scrambled peptide, reference compound]”: the “VEGF-induced VEGFR-2 phosphorylation, negative control” value on VEGFR-2 is reported as “lack of effect”. The “induction of ERK phosphorylation” value in the assay with ERK [1] (compared to the PCK3145 derivative) is on record as “unable to induce”. In the assay with ERK [2], the “VEGF-induced ERK phosphorylation, negative control” value is “lack of effect”.

In the case of `COc1cccc(-c2cc(=O)c3ccccc3o2)c1N` [PD98059, reference compound], in the assay with proMMP-2, the “VEGF-induced proMMP-2 extracellular levels” value is “significantly decreased”. In the assay on ERK [1] (MAPK inhibitor added), the “induction of ERK phosphorylation by the PCK3145 derivative” value was “antagonized”.

B1: PSP94: Prostate secretory protein of human seminal fluid, 10.7 kDa, 10 cysteine residues; wild type, 94 amino acids (protein, UniProt P08118 21-114, looked up)
Beta-microseminoprotein: SCYFIPNEGVPGDSTRKCMDLKGNKHPINSEWQTDNCETCTCYETEISCCTLVSTPVGYDKDNCQRIFKKEDCKYIVVEKKDPKKTCSVSEWII
For the molecule B1, the “binding of FSH to its receptor” value with FSH receptor was “interfere”. In addition, in the assay on tumor cells, the “growth of tumor cells” value is given as “inhibits”. Further, the FSH levels result in the assay with FSH was “lower”. The “development of skeletal metastasis” value with skeletal metastasis is reported as “reduces”.
